A word on the IC50: it is the concentration needed to halve the response being measured.

Activity calls are given as the source filed them. No cut-off for these calls is given here.

The results in this text go back to ChEMBL document CHEMBL3804822 (Bioorg Med Chem, 2016).

Assay [1] concerns the target T1, Estrogen receptor (Homo sapiens, UniProt P03372).
T1 sequence (P03372 whole entry): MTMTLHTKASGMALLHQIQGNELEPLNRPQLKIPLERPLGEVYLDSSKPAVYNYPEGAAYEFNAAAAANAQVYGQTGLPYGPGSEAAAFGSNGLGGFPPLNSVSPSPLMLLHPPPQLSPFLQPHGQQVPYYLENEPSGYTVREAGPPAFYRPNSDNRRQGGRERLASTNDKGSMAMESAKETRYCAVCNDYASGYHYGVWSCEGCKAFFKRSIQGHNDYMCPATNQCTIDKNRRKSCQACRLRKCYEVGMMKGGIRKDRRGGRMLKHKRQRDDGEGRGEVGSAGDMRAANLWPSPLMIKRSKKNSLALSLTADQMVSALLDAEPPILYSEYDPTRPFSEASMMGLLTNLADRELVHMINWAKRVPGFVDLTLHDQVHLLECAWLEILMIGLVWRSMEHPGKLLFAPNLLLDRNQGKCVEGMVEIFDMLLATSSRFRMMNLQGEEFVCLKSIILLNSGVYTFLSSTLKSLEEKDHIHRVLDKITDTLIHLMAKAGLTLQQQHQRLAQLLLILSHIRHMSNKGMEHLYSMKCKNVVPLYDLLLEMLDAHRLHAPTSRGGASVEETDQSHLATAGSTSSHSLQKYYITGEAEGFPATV
Description: Displacement of Fluormone ES2 from human recombinant full length untagged-ERalpha by fluorescence polarization competition binding assay. On the technique in general: Polarisation of emitted light reports the rotation of a fluorescent probe.

The target of assay [2] is T2, Estrogen receptor (Homo sapiens) (UniProt P03372).
T2 sequence (whole entry): T1 sequence (P03372 whole entry)
Description: Down regulation of ERalpha in human MCF7 cells after 6 hrs in presence of 10 uM proteasome inhibitor MG132 by Western blot analysis. The format is cell-based.

Assay [3] addresses T2, Estrogen receptor (Homo sapiens). Description: Down regulation of ERalpha in human MCF7 cells at 10 uM after 6 hrs by Western blot analysis in absence of MG132. Background: A western blot detects proteins with antibodies after separation by electrophoresis.
Assay [4] addresses T1, Estrogen receptor. In words: Antagonist activity at ERalpha (unknown origin) transfected in 17beta-estradiol induced-HEK293 cells assessed as inhibition of estradiol-mediated protein transcriptional activity after 16 to 20 hrs by Luciferase reporter gene assay.

Consider `CCCCCCCCNCCOc1ccc(C(=O)c2c(-c3ccc(O)cc3)sc3cc(O)ccc23)cc1`, for which the IC50 at Estrogen receptor [1] was found to be 49 nM. Consider `CCCCCCCCCCNCCOc1ccc(C(=O)c2c(-c3ccc(O)cc3)sc3cc(O)ccc23)cc1`, for which the result in assay [2] was inactive. The IC50 at Estrogen receptor [1] was 40 nM; at Estrogen receptor [4] it was 0.68 nM. The Activity result in assay [3] is “Dose-dependent effect”. Take `CCCCCCNCCOc1ccc(C(=O)c2c(-c3ccc(O)cc3)sc3cc(O)ccc23)cc1`: on Estrogen receptor [1], the IC50 turned out to be 61 nM. For `CCCCCCCCCCCCNCCOc1ccc(C(=O)c2c(-c3ccc(O)cc3)sc3cc(O)ccc23)cc1`, the result in assay [2] was inactive. Also, the IC50 was determined as 5.9 nM at Estrogen receptor [1] and 0.09 nM at Estrogen receptor [4]. Also, in assay [3], the Activity result was “Dose-dependent effect”. As for `CCCCCCCCCCCCCCCCNCCOc1ccc(C(=O)c2c(-c3ccc(O)cc3)sc3cc(O)ccc23)cc1`, on Estrogen receptor [1], the IC50 was determined as 11 nM. Still for that read-out and setting: for `CCCCCCCCCCCCCCNCCOc1ccc(C(=O)c2c(-c3ccc(O)cc3)sc3cc(O)ccc23)cc1` the value was 28 nM; for `CCCCCCCCCCCCCCCCCCNCCOc1ccc(C(=O)c2c(-c3ccc(O)cc3)sc3cc(O)ccc23)cc1`, 1.8 nM.
